These results are taken from patent US9856239B1, “Carboxylic acid compound, method for preparation thereof, and use thereof” (INVENTISBIO SHANGHAI LTD., priority 2014, dated 2018).

Each structure is given as a SMILES string. pIC50: −log10 of the molar value.

human URAT1, sequence (Q96S37 whole entry): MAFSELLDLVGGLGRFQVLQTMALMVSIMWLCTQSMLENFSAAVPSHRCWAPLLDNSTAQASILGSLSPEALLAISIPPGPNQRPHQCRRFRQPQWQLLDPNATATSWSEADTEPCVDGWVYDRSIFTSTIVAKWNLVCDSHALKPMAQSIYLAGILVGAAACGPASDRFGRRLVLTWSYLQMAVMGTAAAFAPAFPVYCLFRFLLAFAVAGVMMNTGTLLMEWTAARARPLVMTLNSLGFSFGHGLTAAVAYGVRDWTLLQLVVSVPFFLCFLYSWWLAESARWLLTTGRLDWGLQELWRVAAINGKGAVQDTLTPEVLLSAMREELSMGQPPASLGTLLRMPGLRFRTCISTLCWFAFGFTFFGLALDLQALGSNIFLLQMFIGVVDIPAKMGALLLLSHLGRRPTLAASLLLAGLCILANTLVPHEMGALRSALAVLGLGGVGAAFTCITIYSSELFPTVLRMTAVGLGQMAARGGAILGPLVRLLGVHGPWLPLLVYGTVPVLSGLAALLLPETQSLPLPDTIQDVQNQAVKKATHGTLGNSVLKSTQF

The test addresses human URAT1 (Homo sapiens (Human), UniProt Q96S37). As to the kind of experiment: Inhibition of 14C-uric acid absorption in URAT1 cell model (HEK-293T cells transfected with human URAT1). It is filed as cell-based. To be noted: HEK-293T cells transfected with human URAT1, 14C-uric acid uptake, 5 min, 37 degrees; read-out: URAT1 IC50 Activity level. Here is the method: After 5 min, the buffer was removed from cell wells, added with 100 microliter of ice-cold and no chloride ions-containing HBSS buffer to gently rinse cells within wells so as to stop them from absorbing ^14C-uric acid, the rinsing was repeated 3 times in the same manner. 150 microliter of cell lysate (100 mM of NaOH) was added in each well. Cell plate was placed on a vibrating plate and vibrated for 10 min at a speed of 600 rpm such that the cells were completely lysed. The cell plate was put in a centrifuge and spun for 5 min at a speed of 1000 rpm, then 45 microliter of supernatant was sucked out from each well and transferred to 96-well plate (Isoplate-96 Microplate from PerkinElmer). In the new 96-well plate, 150 microliter of Ultima Gold XR scintillation solution was added in each well. The 96-well plate was vibrated for 10 min at a speed of 600 rpm on a vibrating plate. Finally, the 96-well plate was put in a MicroBeta Trilux Counter from PerkinElmer and was read, then IC50 values were calculated, and the results are shown in Table 1 below. Wherein
With `N#Cc1ccc(-c2cnccc2SCC2(C(=O)O)CC2)c2ccccc12` [Compound 1, 1-(((3-(4-cyanonaphthalen-1-yl)pyridin-4-yl)thio)methyl)cyclopropanecarboxylic acid], the pIC50 (in general, the IC50 on a negative log10 scale, so that one unit is a factor of ten) was more than 7.00. Regarding `N#Cc1ccc(-c2cnccc2SCCC(=O)O)c2ccccc12` [Compound 2], the pIC50 was 6.00 to 7.00. With `N#Cc1ccc(-c2cnccc2SCCCC(=O)O)c2ccccc12` [Compound 3] the figure was more than 7.00. With `N#Cc1ccc(-c2cnccc2SCC2(CC(=O)O)CC2)c2ccccc12` [Compound 4, 2-(1-(((3-(4-cyanonaphthalen-1-yl)pyridin-4-yl)thio)methyl)cyclopropyl)acetic acid] the figure was more than 7.00; with `N#Cc1ccc(-c2cnccc2SC[C@H]2C[C@@H](C(=O)O)C2)c2ccccc12` [Compound 5], 6.00 to 7.00.

Turning to `N#Cc1ccc(-c2cnccc2SC[C@H]2C[C@H](C(=O)O)C2)c2ccccc12` [Compound 6], the pIC50 is less than 6.00. With `N#Cc1ccc(-c2cnccc2S[C@H]2C[C@H](C(=O)O)C2)c2ccccc12` [Compound 7] the figure was 6.00 to 7.00.

Take `CC(C)(Sc1ccncc1-n1cc(C#N)c2ccccc21)C(=O)O` [Compound 8, 2-((3-(3-cyano-1H-indol-1-yl)pyridin-4-yl)thio)-2-methylpropanoic acid]: the pIC50 was less than 6.00. As for `CC(C)(Sc1ccncc1-n1nc(C2CC2)c2ccccc21)C(=O)O` [Compound 9], the pIC50 is less than 6.00. With `CC(C)(Sc1ccncc1-c1ncc(C#N)c2ccccc12)C(=O)O` [Compound 10, 2-((3-(4-cyanoisoquinolin-1-yl)pyridin-4-yl)thio)-2-methylpropanoic acid] the figure was less than 6.00.

In the case of `N#Cc1ccc(-c2ccccc2SCC2(CC(=O)O)CC2)cc1` [Compound 11, 2-(1-((2-(4-cyanophenyl)phenylthio)methyl)cyclopropyl)acetic acid], the pIC50 is more than 7.00. Then `N#Cc1ccc(-c2cnccc2SCCC(F)(F)C(=O)O)c2ccccc12` [Compound 12], with 6.00 to 7.00.

With `N#Cc1ccc(-c2cnccc2Sc2ccccc2C(=O)O)c2ccccc12` [Compound 13], the pIC50 was 6.00 to 7.00. Take `N#Cc1ccc(-c2cnccc2Sc2cccc(C(=O)O)c2)c2ccccc12` [Compound 14]: the pIC50 is 6.00 to 7.00. Then `N#Cc1ccc(-c2cnccc2Sc2ccc(C(=O)O)cc2)c2ccccc12` [Compound 15], with 6.00 to 7.00; and `N#Cc1ccc(-c2cnccc2SCC2(C(=O)O)CCCC2)c2ccccc12` [Compound 16], with more than 7.00; and `N#Cc1ccc(-c2cnccc2SCC2(C(=O)O)CCC2)c2ccccc12` [Compound 17, 1-(((3-(4-cyanonaphthalen-1-yl)pyridin-4-yl)thio)methyl)cyclobutanecarboxylic acid], with more than 7.00.

For `CC(C)(CCC(=O)O)Sc1ccncc1-c1ccc(C#N)c2ccccc12` [Compound 18, 4-((3-(4-cyanonaphthalen-1-yl)pyridin-4-yl)thio)-4-methylpentanoic acid], the pIC50 was more than 7.00.

As for `Cc1cc(C#N)cnc1-c1cnccc1SC(C)(C)C(=O)O` [Compound 19], the negative-log IC50 (pIC50) is less than 6.00. Take `N#Cc1ccc(-c2cnccc2SCC2(CC(=O)O)CC2)cc1` [Compound 20, 2-(1-(((3-(4-cyanophenyl)pyridin-4-yl)thio)methyl)cyclopropyl)acetic acid]: the pIC50 is more than 7.00.

For the molecule `O=C(O)CC1(CSc2ccncc2-c2ccc(CO)cc2)CC1` [Compound 22, 2-(1-((3-(4-(hydroxymethyl)phenyl)pyridin-4-ylthio)methyl)cyclopropyl)acetic acid], the pIC50 was 6.00 to 7.00. Then `N#Cc1ccc(-c2cnccc2NCC(=O)O)c2ccccc12` [Compound 24, 2-(3-(1-cyanonaphthalen-4-yl)pyridin-4-ylamino)acetic acid], with less than 6.00; and `CC(C)(Nc1ccncc1-c1ccc(C#N)c2ccccc12)C(=O)O` [Compound 25], with less than 6.00; and `N#Cc1ccc(-c2cnccc2NCCC(=O)O)c2ccccc12` [Compound 26], with less than 6.00.

In the case of `N#Cc1ccc(-c2cnccc2NCCCC(=O)O)c2ccccc12` [Compound 27], the pIC50 was less than 6.00.

`N#Cc1ccc(-c2cnccc2NCC(=O)O)cc1` [Compound 28]: the pIC50 was less than 6.00. Turning to `N#Cc1ccc(-c2cnccc2OCC2(CC(=O)O)CC2)cc1` [Compound 29, 2-(1-(((3-(4-cyanophenyl)pyridin-4-yl)oxy)methyl)cyclopropyl)acetic acid], the pIC50 is less than 6.00.

Regarding `N#Cc1ccc(-c2cnccc2OCC2(CC(=O)O)CC2)c2ccccc12` [Compound 30], the pIC50 is less than 6.00. With `CC(C)(Oc1ccncc1-c1ccc(C#N)cc1)C(=O)O` [Compound 31, 2-(3-(4-cyanophenyl)pyridin-4-yloxy)-2-methylpropanoic acid] the figure was less than 6.00; with `N#Cc1ccc(-c2cnccc2CCC(=O)O)c2ccccc12` [Compound 32, 3-(3-(4-cyanonaphthalen-1-yl)pyridin-4-yl) propanoic acid], less than 6.00; with `CC(C)(Sc1ccncc1-c1ccc(C2(O)CC2)cc1)C(=O)O` [Compound 33, 2-((3-(4-(1-hydroxycyclopropyl)phenyl)pyridin-4-yl)thio)-2-methylpropanoic acid], 6.00 to 7.00. With `O=C(O)CC1(CSc2ccncc2-c2ccc(C3(O)CC3)cc2)CC1` [Compound 34, 2-(1-(((3-(4-(1-hydroxycyclopropyl)phenyl)pyridin-4-yl)thio)methyl)cyclopropyl)acetic acid], the pIC50 was 6.00 to 7.00. With `CC(C)(Sc1ccncc1-c1ccc(C2(O)COC2)cc1)C(=O)O` [Compound 35, 2-((3-(4-(3-hydroxyoxetan-3-yl)phenyl)pyridin-4-yl)thio)-2-methylpropanoic acid] the figure was 6.00 to 7.00; with `O=C(O)CC1(CSc2ccncc2-c2ccc(C3(O)COC3)cc2)CC1` [Compound 36, 2-(1-(((3-(4-(3-hydroxyoxetan-3-yl)phenyl)pyridin-4-yl)thio)methyl)cyclopropyl)acetic acid], less than 6.00; with `CC(C)(Sc1ccncc1-c1ccc(C#N)cn1)C(=O)O` [Compound 37, 2-((5-cyano-[2,3′-bipyridine]-4′-yl)thio)-2-methylpropanoic acid], less than 6.00. Then `N#Cc1ccc(-c2cnccc2SCC2(CC(=O)O)CC2)nc1` [Compound 38, 2-(1-(((5-cyano-2,3′-bipyridin-4′-yl)thio)methyl)cyclopropyl)acetic acid], with less than 6.00; and `O=C(O)CC1(CSc2ccncc2-c2ccc(C(=O)O)cn2)CC1` [Compound 39, 4′-(((1-(carboxymethyl)cyclopropyl)methyl)thio)-[2,3′-bipyridine]-5-carboxylic acid], with less than 6.00; and `[2H]C([2H])([2H])C(Sc1ccncc1-c1ccc(C#N)c2ccccc12)(C(=O)O)C([2H])([2H])[2H]` [Compound 40, di(methyl-d3)-2-((3-(4-cyanonaphthalen-1-yl)pyridin-4-yl)thio)acetic acid], with more than 7.00. With `[2H]C([2H])([2H])C(C)(Sc1ccncc1-c1ccc(C#N)c2ccccc12)C(=O)O` (stereo not drawn) [Compound 41, 2-methyl-d3-2-((3-(4-cyanonaphthalen-1-yl)pyridin-4-yl)thio) propanoic acid], the pIC50 is more than 7.00.
